Source: patent EP0244595A2, “Dihydropyridine derivatives, process for their preparation and their use as pharmaceutical compounds” (Byk Gulden Lomberg Chemische Fabrik GmbH, priority 1986, dated 1987)
Counter-ions that a name gives are not always drawn. Like-named read-outs stand apart in the source and are kept apart here.

System: genetisch hypertonen Ratten
Experiment: Antihypertensive effect (systolic blood pressure, tail cuff) in spontaneously hypertensive rats after oral dosing
Type: in vivo, Ratte
Conditions: Rattus norvegicus; for change in vivo at 25 µmol/kg: 25 µmol/kg p.o. once daily on four consecutive days; for change in vivo at 5 µmol/kg: 5 µmol/kg p.o. once daily on four consecutive days; for change in vivo at 10 µmol/kg: 10 µmol/kg p.o. once daily on four consecutive days
Excerpt: Die antihypertensive Wirksamkeit der erfindungsgemäßen Verbindungen kann am Modell der spontan hypertonen Ratte nachgewiesen werden.
Zur Bestimmung der antihypertensiven Wirkung werden die unten aufgeführten Verbindungen in den angegebenen Dosen an vier aufeinander folgenden Tagen an je 6 männlichen Ratten (Stamm SHR/N/Ibm/Bm, 250-350 g) mit genetisch bedingtem Hochdruck (systolischer Blutdruck > 180 mmHg) täglich einmal mittels Schlundsonde verabfolgt. Die Messung des Blutdrucks erfolgt jeweils 6 und gegebenenfalls 2 oder 24 Studnen nach Substanzgabe.
Die Blutdruckmessung wird in einer Wärmekammer bei 36°C vorgenommen, um eine bessere Durchblutung der Schwanzarterie zu erreichen. Hierzu werden die Tiere in perforierte Lochblechkäfige verbracht und 20 - 40 Min. nach Beginn der Aufwärmung gemessen. Zur Messung des systolischen arteriellen Drucks wird eine ringförmige Manschette mit aufblasbarer Gummimembran zur Unterbindung der Durchblutung und ein ringförmiger Piezokristallaufnehmer zur Erfassung der Pulswellen auf den Schwanz aufgeschoben. Nach erfolgter Unterbindung des Blutstroms in der Schwanzarterie wird der Manschettendruck kontinuierlich reduziert. Die Wiederkehr der Pulswellen bei Druckablassen wird automatisch als systolischer Blutdruck erkannt und ausgedruckt (Bühler, R. er al." Microprocessor-based automation of blood pressure measurement in the conscious rat. Proceedings of the 4th international symposium on rats with spontaneous hypertension and related studies, Rascher, R. et al. (Eds.), Schattauer Verlag, Stuttgart, New York, 1982, S. 410-413). Pulssignale und Druckverlauf werden zur Auswertung graphisch aufgezeichnet.
Zur Gewöhnung an den Meßvorgang werden die Tiere vor Substanzprüfung 14 Tage trainiert. In der zweiten Trainingswoche werden Blutdruck-Vorwerte erhoben. Tiergruppen, die Substanz erhalten, werden gegen eine Kontrollgruppe geprüft.
In der anschließenden Tabelle werden die untersuchten Verbindungen durch laufende Nummern gekennzeichnet, die mit den jewiligen Beispielnummern übereinstimmen.
Tabelle I gibt für die Vertreter der erfindungsgemäßen Verbindungen die prozentuale Senkung des Blutdrucks (BP) nach oraler Verabreichung bei der Ratte wieder.

[1] = 2h after dosing, mean of days 1+4, male SHR/N/Ibm/Bm rats, N=6, read-out: BP (% Änderung vs. Kontrolle), Mittelwert für Meßzeitpunkte: Stunden nach Gabe (Tage) 2h (1.+4.Tag)
[2] = 6h after dosing, mean of days 1-4, male SHR/N/Ibm/Bm rats, N=6, read-out: BP (% Änderung vs. Kontrolle), Mittelwert für Meßzeitpunkte: Stunden nach Gabe (Tage) 6h (1.-4.Tag)
[3] = 24h after dosing, mean of days 1+3, male SHR/N/Ibm/Bm rats, N=6, read-out: BP (% Änderung vs. Kontrolle), Mittelwert für Meßzeitpunkte: Stunden nach Gabe (Tage) 24h (1.+3.Tag)

Structure (SMILES)	change in vivo at 25 µmol/kg [1] [%]	change in vivo at 25 µmol/kg [2] [%]	change in vivo at 25 µmol/kg [3] [%]	change in vivo at 10 µmol/kg [1] [%]	change in vivo at 10 µmol/kg [2] [%]	change in vivo at 10 µmol/kg [3] [%]	other results
CC1=C(C(=O)OCCCN2CCC(c3ccccc3)CC2)C(c2cccc([N+](=O)[O-])c2)C(C(=O)O[C@@H]2C[C@H](C)CC[C@H]2C(C)C)=C(C)N1 (single isomer, unassigned) [Beispiel 2b, 1,4-Dihydro-2,6-dimethyl-4-(3-nitrophenyl)-pyridin-3,5-dicarbonsäure-3-(-)-menthyl-5-[3-(4-phenylpiperidyl-1)-propyl]-ester-hydrochlorid]	-36	-33	-16				
COc1ccccc1N1CCN(CCCOC(=O)C2=C(C)NC(C)=C(C(=O)O[C@@H]3C[C@H](C)CC[C@H]3C(C)C)C2c2cccc([N+](=O)[O-])c2)CC1 (single isomer, unassigned) [Beispiel 3b, 1,4-Dihydro-2,6-dimethyl-4-(3-nitrophenyl)-pyridin-3,5-dicarbonsäure-3-(-)-menthyl-5-{3-[4-(2-methoxyphenyl)-1-piperazinyl]-propyl}-ester-fumarat]	-23	-36	-17				
CC1=C(C(=O)OCCN2CCN(c3ccccc3)CC2)C(c2cccc([N+](=O)[O-])c2)C(C(=O)O[C@@H]2C[C@H](C)CC[C@H]2C(C)C)=C(C)N1 (single isomer, unassigned) [Beispiel 4b, 1,4-Dihydro-2,6-dimethyl-4-(3-nitrophenyl)-pyridin-3,5-dicarbonsäure-3-(-)-menthyl-5-[2-(4-phenyl-1-piperazinyl)-ethyl]ester-fumarat]							change in vivo at 5 µmol/kg [1]: -18%; change in vivo at 5 µmol/kg [2]: -16%; change in vivo at 5 µmol/kg [3]: 4%
CC1=C(C(=O)OCCN2CCN(c3ccccn3)CC2)C(c2cccc([N+](=O)[O-])c2)C(C(=O)O[C@@H]2C[C@H](C)CC[C@H]2C(C)C)=C(C)N1 (single isomer, unassigned) [Beispiel 5b, 1,4-Dihydro-2,6-dimethyl-4-(3-nitropheny)-pyridin-3,5-dicarbonsäure-3-(-)-menthyl-5-{2-[4-(2-pyridyl)-1-piperazinyl]-ethyl}-ester-fumarat]				-20	-12	-10	
CC1=C(C(=O)OCCCN(C)Cc2ccccc2)C(c2cccc([N+](=O)[O-])c2)C(C(=O)O[C@@H]2C[C@H](C)CC[C@H]2C(C)C)=C(C)N1 (single isomer, unassigned) [Beispiel 6]	-27	-33	-10				
CC1=C(C(=O)OCCCN2CCC(C(=O)c3ccc(F)cc3)CC2)C(c2cccc([N+](=O)[O-])c2)C(C(=O)O[C@@H]2C[C@H](C)CC[C@H]2C(C)C)=C(C)N1 (single isomer, unassigned) [Beispiel 7, 1,4-Dihydro-2,6-dimethyl-4-(3-nitrophenyl)-pyridin-3,5-dicarbonsäure-3-(-)-menthyl-5-{3-[4-(4-fluorbenzoyl)-piperidyl-1]-propyl}-ester-hydrochlorid]				-12	-11	5	
COc1ccccc1N1CCN(CCOC(=O)C2=C(C)NC(C)=C(C(=O)O[C@@H]3C[C@H](C)CC[C@H]3C(C)C)C2c2cccc([N+](=O)[O-])c2)CC1 (single isomer, unassigned) [Beispiel 9, 1,4-Dihydro-2,6-dimethyl-4-(3-nitrophenyl)-pyridin-3,5-dicarbonsäure-3-(-)-menthyl-5-{2-[4-(2-methoxyphenyl)1-piperazinyl]-ethyl}-ester]				-22	-32	-4	
CC1=C(C(=O)OCCCN2CCN(c3ccccc3)CC2)C(c2cccc([N+](=O)[O-])c2)C(C(=O)O[C@@H]2C[C@H](C)CC[C@H]2C(C)C)=C(C)N1 (single isomer, unassigned) [Beispiel 10, 1,4-Dihydro-2,6-dimethyl-4-(3-nitrophenyl)-pyridin-3,5-dicarbonsäure-3-(-)-menthyl-5-[3-(4-phenyl-1-piperazinyl)-propyl]-ester-fumarat]	-34	-34	-6				
CCOc1ccccc1N1CCN(CCCOC(=O)C2=C(C)NC(C)=C(C(=O)O[C@@H]3C[C@H](C)CC[C@H]3C(C)C)C2c2cccc([N+](=O)[O-])c2)CC1 (single isomer, unassigned) [Beispiel 11, 1,4-Dihydro-2,6-dimethyl-4-(3-nitrophenyl)-pyridin-3,5-dicarbonsäure-3-(-)-menthyl-5-{3-[4-(2-ethoxyphenyl)-1-piperazinyl]-propyl}ester-fumarat]				-21	-26	-10	
CC1=C(C(=O)OCCCN2CCN(c3ccccn3)CC2)C(c2cccc([N+](=O)[O-])c2)C(C(=O)O[C@@H]2C[C@H](C)CC[C@H]2C(C)C)=C(C)N1 (single isomer, unassigned) [Beispiel 12, 1,4-Dihydro-2,6-dimethyl-4-(3-nitrophenyl)-pyridin-3,5-dicarbonsäure-3-(-)-menthyl-5-{3-[4-(2-pyridyl)-1-piperazinyl]-propyl}-ester-fumarat]				-17	-20	-1	
CC1=C(C(=O)OCCCN2CCN(C(c3ccccc3)c3ccccc3)CC2)C(c2cccc([N+](=O)[O-])c2)C(C(=O)O[C@@H]2C[C@H](C)CC[C@H]2C(C)C)=C(C)N1 (single isomer, unassigned) [Beispiel 13, 1,4-Dihydro-2.6-dimethyl-4-(3-nitrophenyl)-pyridin-3,5-dicarbonsäure-3-(-)-menthyl-5-[3-(4-benzhydryl-1-piperazinyl)-propyl]-ester-semifumarat]	-30	-40	-35				
CC1=C(C(=O)OCCCN2CCN(c3cccc(C(F)(F)F)c3)CC2)C(c2cccc([N+](=O)[O-])c2)C(C(=O)O[C@@H]2C[C@H](C)CC[C@H]2C(C)C)=C(C)N1 (single isomer, unassigned) [Beispiel 14, 1,4-Dihydro-2,6-dimethyl-4-(3-nitrophenyl)-pyridin-3,5-dicarbonsäure-3-(-)-menthyl-5-{3-[4-(3-trifluormethylphenyl}-1-piperazinyl]-propyl}-ester-fumarat]	-42	-43	-21				
COc1cccc(N2CCN(CCCOC(=O)C3=C(C)NC(C)=C(C(=O)O[C@@H]4C[C@H](C)CC[C@H]4C(C)C)C3c3cccc([N+](=O)[O-])c3)CC2)c1 (single isomer, unassigned) [Beispiel 15, 1,4-Dihydro-2,6-dimethyl-4-(3-nitrophenyl)-pyridin-3,5-dicarbonsäure-3-(-)-menthyl-5-{3-[4-(3-methoxyphenyl)-1-piperazinyl]-propyl}-ester-fumarat]				-14	-7	-4	
